Results on five molecules are retold here after patent publication US9980943B2, “Methods of treating muscular dystrophy” (BOARD OF REGENTS OF THE NEVADA SYSTEM OF HIGHER EDUCATION, …, priority 2013, dated 2018).

Common to all, as to format: cell-based, mouse
The subject of test [1] is α7 integrin (LacZ reporter in α7+/LacZ myotubes). Nature of the test: Myotube α7 integrin FDG assay (Burkin assay in myotubes, 96-well). The note with it: for Burkin Assay in Myotubes, value relative to DMSO: SU9516 analogs, 96-well, N=3-6.
Test [2] deals with β-galactosidase in CMV-LacZ C2C12 myotubes. Nature of the test: CMV-LacZ secondary screen in C2C12 myotubes (β-Gal stabilizing assay). The note with it: for CMV-LACZ in Myotubes, signal relative to DMSO: C2C12 CMV-LacZ myotubes, fold relative to DMSO; for CMV-LACZ in Myotubes, value relative to DMSO: SU9516 analogs, C2C12 CMV-LacZ, N=2. The method, boiled down:
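Dose-response runs at 0.5–40 μM (0.5, 1, 5, 10, 20, 40 μM; N=2 per point) used a clonal C2C12 line carrying CMV-LacZ. Cells were assayed as myoblasts or as differentiated myotubes, and β-galactosidase levels were read with the FDG fluorogenic substrate.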

Test [3] concerns α7 integrin (LacZ reporter in α7βgal+/− myoblasts). Nature of the test: Myoblast α7+/LacZ integrin FDG assay (Burkin assay in myoblasts, 96-well). The note with it: 96-well; for Burkin Assay in Myoblasts, signal relative to DMSO: α7+/LacZ myoblasts; for Burkin Assay in Myoblasts, value relative to DMSO: SU9516 analogs, N=3-6.
In test [4] the test system is β-galactosidase in CMV-LacZ C2C12 myoblasts. Nature of the test: CMV-LacZ secondary screen in C2C12 myoblasts (β-Gal stabilizing assay). The note with it: for CMV-LACZ in Myoblasts (β-galactosidase activity relative to DMSO): CMV-LacZ C2C12 myoblasts; for CMV-LACZ in Myoblasts, value relative to DMSO: SU9516 analogs, C2C12 CMV-LacZ, N=2. The method, boiled down: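 A secondary screen identifies compounds that stabilize β-gal independently of the native promoter, using CMV-LacZ C2C12 cells. Curves span 0.5–40 μM at six levels, in duplicate.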

Regarding `CC(NC(=O)c1ccc(C(C)(C)C)cc1)C(c1cccs1)N1CCOCC1` (stereo not drawn) [MLS001167281-01], the “Burkin Assay in Myotubes, α7 integrin LacZ reporter signal relative to DMSO” value came out at 1.063 in test [1] (0.5 uM); 1.054 in test [1] (1 uM); 1.074 in test [1] (5 uM); 1.142 in test [1] (10 uM); 0.8293 in test [1] (20 uM); 0.8345 in test [1] (40 uM). Also, the “CMV-LACZ in Myotubes, signal relative to DMSO” value amounted to 1.0663 in test [2] (0.5 uM); 1.0789 in test [2] (1 uM); 0.8948 in test [2] (5 uM); 0.9727 in test [2] (10 uM); 1.1089 in test [2] (20 uM); 0.9722 in test [2] (40 uM). In addition, the “Burkin Assay in Myoblasts, signal relative to DMSO” value in test [3] (0.5 uM) is 1.089; in test [3] (1 uM), 1.18; in test [3] (5 uM) it was 1.075; in test [3] (10 uM), 0.9776; in test [3] (20 uM) it was 0.8869; in test [3] (40 uM), 0.8618. Further, the “CMV-LACZ in Myoblasts (β-galactosidase activity relative to DMSO)” value in test [4] (0.5 uM) was 1.0114; in test [4] (1 uM) it was 1.1289; in test [4] (5 uM) it was 0.9684; in test [4] (10 uM), 1.1951; in test [4] (20 uM) it was 0.9256; in test [4] (40 uM), 0.7467.

Consider `O=C(CSc1nnc(COc2ccc(Br)cc2)o1)NC1CCCCC1` [MLS001215357-01], for which the “Burkin Assay in Myotubes, α7 integrin LacZ reporter signal relative to DMSO” value in test [1] (0.5 uM) was 0.9366; in test [1] (1 uM), 0.8137; in test [1] (5 uM) it was 0.9057; in test [1] (10 uM), 0.884; in test [1] (20 uM), 0.756; in test [1] (40 uM) it was 0.6929. In addition, the “CMV-LACZ in Myotubes, signal relative to DMSO” value in test [2] (0.5 uM) is on record as 1.1547; in test [2] (1 uM) it was 1.1400; in test [2] (5 uM), 1.1407; in test [2] (10 uM), 1.1192; in test [2] (20 uM), 1.3622; in test [2] (40 uM), 1.0667. For the same molecule, the “Burkin Assay in Myoblasts, signal relative to DMSO” value in test [3] (0.5 uM) was 1.037; in test [3] (1 uM), 0.93; in test [3] (5 uM), 0.8837; in test [3] (10 uM), 1.489; in test [3] (20 uM) it was 0.9203; in test [3] (40 uM), 0.5327. Besides, the “CMV-LACZ in Myoblasts (β-galactosidase activity relative to DMSO)” value in test [4] (0.5 uM) is 1.1560; in test [4] (1 uM), 1.2686; in test [4] (5 uM) it was 0.8575; in test [4] (10 uM) it was 1.0378; in test [4] (20 uM) it was 1.2467; in test [4] (40 uM), 0.4719.

On to `O=C(N[C@@H](Cc1c[nH]c2ccccc12)C(=O)O)C1CCN(S(=O)(=O)c2cccs2)CC1` [MLS001175021-01], for which the “Burkin Assay in Myotubes, α7 integrin LacZ reporter signal relative to DMSO” value came to 1.061 in test [1] (0.5 uM); 1.0167 in test [1] (1 uM); 1.051 in test [1] (5 uM); 0.9913 in test [1] (10 uM); 0.9799 in test [1] (20 uM); 0.8788 in test [1] (40 uM). The “CMV-LACZ in Myotubes, signal relative to DMSO” value came out at 1.0611 in test [2] (0.5 uM); 0.9621 in test [2] (1 uM); 0.9049 in test [2] (5 uM); 0.7979 in test [2] (10 uM); 1.1378 in test [2] (20 uM); 0.9733 in test [2] (40 uM). For the same molecule, the “Burkin Assay in Myoblasts, signal relative to DMSO” value amounted to 0.92 in test [3] (0.5 uM); 0.9803 in test [3] (1 uM); 0.8806 in test [3] (5 uM); 0.906 in test [3] (10 uM); 0.9747 in test [3] (20 uM); 0.9575 in test [3] (40 uM). For the same molecule, the “CMV-LACZ in Myoblasts (β-galactosidase activity relative to DMSO)” value in test [4] (0.5 uM) is on record as 1.1772; in test [4] (1 uM) it was 1.0729; in test [4] (5 uM), 0.9282; in test [4] (10 uM) it was 0.9395; in test [4] (20 uM), 1.1070; in test [4] (40 uM) it was 1.0907.

For the molecule `O=C1Nc2ccccc2/C1=C/c1ccccc1Cl` [MLS001202425-01], the “Burkin Assay in Myotubes, value relative to DMSO” value in test [1] (0.5 uM) is on record as 1.148; in test [1] (1 uM), 1.205; in test [1] (5 uM) it was 0.9499; in test [1] (10 uM), 0.8033; in test [1] (20 uM), 0.5178; in test [1] (40 uM), 0.354. Besides, the “CMV-LACZ in Myotubes, value relative to DMSO” value is listed as 0.8793 in test [2] (0.5 uM); 1.0185 in test [2] (1 uM); 1.1496 in test [2] (5 uM); 1.0423 in test [2] (10 uM); 0.9918 in test [2] (20 uM); 0.9976 in test [2] (40 uM). For the same molecule, the “Burkin Assay in Myoblasts, value relative to DMSO” value in test [3] (0.5 uM) came out at 1.2214; in test [3] (1 uM), 1.219; in test [3] (5 uM), 0.9673; in test [3] (10 uM), 0.8645; in test [3] (20 uM) it was 0.7465; in test [3] (40 uM) it was 0.3445. In addition, the “CMV-LACZ in Myoblasts, value relative to DMSO” value in test [4] (0.5 uM) was 1.0625; in test [4] (1 uM), 1.0919; in test [4] (5 uM) it was 0.8675; in test [4] (10 uM) it was 1.1386; in test [4] (20 uM), 0.9081; in test [4] (40 uM) it was 0.6233.

With `CCOc1ccccc1Nc1cc2n(c(=O)n1)CCc1cc(OC)c(OC)cc1-2` [MLS001215294-01], the “Burkin Assay in Myotubes, α7 integrin LacZ reporter signal relative to DMSO” value in test [1] (0.5 uM) is 1.047; in test [1] (1 uM), 1.106; in test [1] (5 uM), 0.8935; in test [1] (10 uM) it was 0.8216; in test [1] (20 uM) it was 0.8062; in test [1] (40 uM) it was 0.8079. For the same molecule, the “CMV-LACZ in Myotubes, signal relative to DMSO” value in test [2] (0.5 uM) came to 0.8838; in test [2] (1 uM), 1.0800; in test [2] (5 uM) it was 1.1438; in test [2] (10 uM) it was 1.4324; in test [2] (20 uM), 1.2800; in test [2] (40 uM), 1.4470. In addition, the “Burkin Assay in Myoblasts, signal relative to DMSO” value in test [3] (0.5 uM) was 0.9783; in test [3] (1 uM) it was 1.003; in test [3] (5 uM) it was 0.7641; in test [3] (10 uM), 0.6141; in test [3] (20 uM), 0.2025; in test [3] (40 uM), 0.2046. The “CMV-LACZ in Myoblasts (β-galactosidase activity relative to DMSO)” value in test [4] (0.5 uM) is 1.2983; in test [4] (1 uM), 1.2817; in test [4] (5 uM) it was 0.8138; in test [4] (10 uM), 1.3412; in test [4] (20 uM), 0.3302; in test [4] (40 uM), 0.4116.
